Like-named read-outs stand apart in the source and are kept apart here.
Tests used:
WT MtIPMS = WT MtIPMS (Mycobacterium tuberculosis, UniProt P9WQB3); test: Steady-state kinetic analysis; format: biochemical
WT IPMS = WT IPMS (Mycobacterium tuberculosis, UniProt P9WQB3); format: binding; details: ITC
wild-type MtIPMS = wild-type MtIPMS (Mycobacterium tuberculosis, UniProt P9WQB3); format: biochemical
Chain of wild-type MtIPMS (P9WQB3 whole entry): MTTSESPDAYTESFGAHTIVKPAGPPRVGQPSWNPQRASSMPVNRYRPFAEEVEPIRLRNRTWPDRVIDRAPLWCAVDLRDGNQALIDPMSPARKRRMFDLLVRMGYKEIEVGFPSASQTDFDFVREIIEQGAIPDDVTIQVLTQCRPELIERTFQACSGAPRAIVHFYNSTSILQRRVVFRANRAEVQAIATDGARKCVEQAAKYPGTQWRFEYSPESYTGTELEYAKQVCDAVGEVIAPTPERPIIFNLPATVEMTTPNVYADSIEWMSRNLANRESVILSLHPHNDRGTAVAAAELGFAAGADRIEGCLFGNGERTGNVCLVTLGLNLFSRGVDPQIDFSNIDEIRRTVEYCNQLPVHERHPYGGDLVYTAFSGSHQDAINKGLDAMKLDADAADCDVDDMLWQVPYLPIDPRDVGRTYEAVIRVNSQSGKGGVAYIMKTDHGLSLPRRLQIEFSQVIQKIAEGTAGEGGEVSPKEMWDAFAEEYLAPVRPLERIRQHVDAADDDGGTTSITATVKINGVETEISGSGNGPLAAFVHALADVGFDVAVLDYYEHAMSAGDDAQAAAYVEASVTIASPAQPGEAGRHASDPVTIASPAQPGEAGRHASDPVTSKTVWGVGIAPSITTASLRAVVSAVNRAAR

Chain of WT IPMS (P9WQB3 whole entry): as above
Chain of WT MtIPMS (P9WQB3 whole entry): as above

CC(=O)SCCNC(=O)CCNC(=O)[C@H](O)C(C)(C)COP(=O)(O)OP(=O)(O)OC[C@H]1O[C@@H](n2cnc3c(N)ncnc32)[C@H](O)[C@@H]1OP(=O)(O)O [Acetyl-CoA, acetyl-coenzyme A]
Km (WT MtIPMS; read-out: K1 (Km), varied substrate Acetyl-CoA): 24 ± 2 µM
kcat1 (kcat) (WT MtIPMS; varied substrate Acetyl-CoA): 163 ± 3 min⁻¹

CC(C)C[C@H](N)C(=O)O [L-leucine]
N (stoichiometry for binding) (WT IPMS): 0.86 ± 0.02
ΔH (WT IPMS): 774 ± 20 cal/mol
ΔS (WT IPMS): 27.8 cal/mol/K
activity retained at saturating L-leucine (wild-type MtIPMS): approximately 10%
β (fractional activity at saturating inhibitor) (wild-type MtIPMS): 0.1

CC(C)C(=O)C(=O)O [α-KIV, α-ketoisovalerate]
Km (WT MtIPMS; read-out: K1 (Km), varied substrate α-KIV): 7.1 ± 0.5 µM
kcat1 (kcat) (WT MtIPMS; varied substrate α-KIV): 152 ± 3 min⁻¹

Reference: paper PMC2724842 (Biochemistry, 2009)
